Reference: patent US4794183A, “Certain tetrahydro-furan or pyran phosphate-ethylene or propylene ammonium derivatives” (Sankyo Company Limited, priority 1985, dated 1988)
Read-outs that look alike come from different tables or passages of the source.

Assays:
[1] = system: rabbits' platelet-rich plasma; assay: Platelet aggregating activity using rabbits' platelet-rich plasma (method of Born et al.); type: cell-based, rabbit; conditions: Oryctolagus cuniculus, read-out: Platelet aggregating effect (EC50)
Protocol: The platelet aggregating activity of the compounds of the invention using rabbits' platelet-rich plasma was examined by the method of Born et al. [Born et al., J. Physiol., 162, 67-68 (1962)]. The EC50 values were calculated. As in Experiment 2, C16 PAF was used as a reference.

sarcoma 180 = assay: Anti-tumor effect, survival of mice transplanted intraperitoneally with sarcoma 180 ascites cells; type: in vivo, mice (ICR/Jcl strain, female); conditions: for ILS (increase in lifespan) / No. surviving after 60 days: single dose, intraperitoneal; for ILS (increase in lifespan): (Tt-Tc) as percentage of Tc; for No. surviving after 60 days: survivors/number in test group; for mice kept alive at the end of 60 days: text summary of Table 8, dose not stated
Protocol: The test animals used were 8 week old female mice of the ICR/Jcl strain and were employed in groups of 5 mice for each test. Into each mouse were transplanted intraperitoneally 1×10^5 ascites cells of sarcoma 180. The day after transplantation, the test compound, dissolved in sterilized physiological saline, was administered in a single dose (in the amount shown in the following Table 8) intraperitoneally to the animals. A control group was given an intraperitoneal administration of sterilized physiological saline without any active compound. The results are reported in the following Table 8 as follows: Tt /Tc, where Tt is the mean survival time (in days) of the mice of a test group (i.e. to which one of the test compound was administered) and Tc is the mean survival time (in days) of the control group; ILS (%), i.e. the increase in lifespan, which is calculated as (Tt -Tc) expressed as a percentage of Tc; and number surviving after 60 days, in which the first number is the number of animals surviving, and the second number is the number in the test group.

[2] = rabbits' platelet-rich plasma, C16 PAF as reference

Row | SMILES | EC50 [1, 2] | ILS (increase in lifespan) (sarcoma 180; 5 mg/kg) | No. surviving after 60 days (sarcoma 180; 5 mg/kg) | mice kept alive at the end of 60 days (sarcoma 180) | EC50 ([1]; Platelet) | ILS (increase in lifespan) (sarcoma 180; 10 mg/kg) | No. surviving after 60 days (sarcoma 180; 10 mg/kg) | ILS (increase in lifespan) (sarcoma 180; 20 mg/kg) | No. surviving after 60 days (sarcoma 180; 20 mg/kg)
1 | CCCCCCCCCCCCCCCCOC[C@H]1OCC[C@@H]1OP(=O)([O-])OCC[N+](C)(C)C (relative stereo) [Example 5, dl-(trans-2-Hexadecyloxymethyltetrahydrofuran-3-yl) 2-(trimethylammonio)ethyl phosphate] | > 100 µM | 157% | 2/5 | 2 of the 5 | – | – | – | – | –
2 | CCCCCCCCCCCCCCCCOCC(COP(=O)([O-])OCC[N+](C)(C)C)OC(C)=O (stereo not shown) [C16 PAF, reference compound] | – | – | – | – | 0.009 µM | – | – | – | –
3 | CCCCCCCCCCCCCCCCOC[C@H]1OCCC[C@@H]1OP(=O)([O-])OCC[N+](C)(C)C (relative stereo) [Example 1, dl-(trans-2-Hexadecyloxymethyltetrahydropyran-3-yl) 2-(trimethylammonio)ethyl phosphate] | > 100 µM | 169% | 2/5 | 2 of the 5 | – | 136% | 1/5 | – | –
4 | CCCCCCCCCCCCCCCCOC[C@H]1OCCC[C@@H]1OP(=O)([O-])OCC[n+]1ccccc1 (relative stereo) [Example 6, dl-(trans-2-Hexadecyloxymethyltetrahydropyran-3-yl) 2-pyridinioethyl phosphate] | – | – | – | – | – | – | – | 155% | 0/5
5 | CCCCCCCCCCCCCCCCO[C@@H]1CCCO[C@H]1COP(=O)([O-])OCC[N+](C)(C)C (relative stereo) [Example 3, dl-(trans-3-Hexadecyloxytetrahydropyran-2-yl)methyl 2-(trimethylammonio)ethyl phosphate] | > 400 µM | – | – | – | – | 127% | 1/5 | – | –
